Data as given in patent US20250214966A1, “Crystalline Salt Form Of A SHP2 Inhibitor” (Array BioPharma Inc., priority 2022, published 2025).
Structures can show the parent of a compound that is named as a salt. Where two headings read alike, the source gives them in different places.

Assays:
Type in all cases: physicochemical
[1] = Solubility of salts in buffer systems at 37° C. (Table 14); conditions: thermodynamic from solid, 20 mg in 1 mL
Method: The solubility (Table 14) was determined by adding 20 mg of salts (Examples 3 to 8) into 3 HPLC vials, to each vial, a magnetic stirrer bar was added along with 1 mL of the appropriate buffer system (pH 1.2 HCl, pH 4.5 sodium acetate, or pH 6.8 phosphate). The samples were agitated at 37° C. for […]. After 24 hours, the slurries were isolated by centrifugation filtration and isolated mother liquors were analyzed by HPLC.
HPLC method (Table 14): A Dionex Ultimate 3000 HPLC instrument was used with a Waters XSelect HSS T3 Column (100 angstrom, 4.6×150 mm, 5 μm). The column temperature was set to 20° C., the UV wavelength set to 254 nm, the injection volume was 10 μL, with a flow rate of 1.0 mL/min. 10 mM ammonium acetate adjusted to pH 4.8 was used as a mobile phase A, and acetonitrile was used as mobile phase B. The gradient method was set up to achieve 15% mobile phase B at 0 minutes, 95% mobile phase B at 17 minutes—held until 22 minutes, 15% mobile phase B at 22.1 minutes—held until 28 minutes.

[2] = TGA/DSC of salts (Table 14); conditions: 10° C./min
Method: TGA/DSC (Table 14): Approximately, 5-10 mg of material was added into a pre-tared open aluminum pan and loaded into a TA Instruments Discovery SDT 650 Auto—Simultaneous DSC and held at room temperature. The sample was then heated at a rate of 10° C./min from 20° C. (ambient) to 400° C. during which time the change in sample weight was recorded along with the heat flow response (DSC). Nitrogen was used as the sample purge gas, at a flow rate of 200 cm3/min.
DSC (Table 14): Approximately, 1-5 mg of material was weighed into an aluminum DSC pan and sealed nonhermetically with an aluminum lid. The sample pan was then loaded into a TA Instruments Discovery DSC 2500 differential scanning calorimeter equipped with a RC90 cooler. The sample and reference were heated to 310° C. at a scan rate of 10° C./min and the resulting heat flow response monitored. The sample was re-cooled to 20° C. and then reheated again to 205° C. all at 10° C./min. Nitrogen was used as the purge gas, at a flow rate of 50 cm^3/min.

[3] = Dynamic vapor sorption of salts (Table 14); conditions: 25° C.
Method: DVS (Table 14): Approximately, 10-20 mg of sample was placed into a mesh vapor sorption balance pan and loaded into a DVS Intrinsic dynamic vapor sorption balance by Surface Measurement Systems. The sample was subjected to a ramping profile from 40-90% relative humidity (RH) at 10% increments, maintaining the sample at each step until a stable weight had been achieved (dm/dt 0.004%, minimum step length 30 minutes, maximum step length 500 minutes) at 25° C. After completion of the sorption cycle, the sample was dried using the same procedure to 0% RH and then a second sorption cycle back to 40% RH. Two cycles were performed. Theweight change during the sorption/desorption cycles were plotted, allowing for the hygroscopic nature of the sample to be determined. XRPD analysis was then carried out on any solid retained. […] The sample was subjected to a ramping profile from 40-90% relative humidity (RH) at 10% increments, maintaining the sample at each step until a stable weight had been achieved (dm/dt 0.004%, minimum step length 30 minutes, maximum step length 500 minutes) at 25° C. After completion of the sorption cycle, the sample was dried using the same procedure to 0% RH and then a second sorption cycle back to 40% RH. Two cycles were performed. The weight change during the sorption/desorption cycles were plotted, allowing for the hygroscopic nature of the sample to be determined. XRPD analysis was then carried out on any solid retained.

solubility at 18 h ([1]; pH 1.2 HCl buffer, simulated gastric fluid, pH 1.2 HCl, read-out: Solubility pH 1.2 HCl): > 20000 µg/mL
solubility at 18 h ([1]; pH 4.5 sodium acetate buffer, aqueous buffer, pH 4.5 sodium acetate, read-out: Solubility pH 4.5 Sodium Acetate): 200 µg/mL
solubility at 18 h ([1]; pH 6.8 phosphate buffer, aqueous buffer, pH 6.8 phosphate, read-out: Solubility Ph 6.8 Phosphate): 1300 µg/mL
TGA/DSC Melt/degradation [2]: 197.3 °C
DVS hygroscopic nature [3]: Slightly
DVS Wt. ([3]; up to 70% RH, possible hydration above 70% RH): hygroscopic 0.7%
Compound: Nc1nccc(Sc2cnc(N3CCC4(CC3)Cc3ccccc3[C@H]4N)nn2)c1Cl [Example 3, (S)-1′-(6-((2-amino-3-chloropyridin-4-yl)thio)-1,2,4-triazin-3-yl)-1,3-dihydrospiro[indene-2,4′-piperidin]-1-amine Mono Succinate Salt Form 1]
